Test results taken from PubChem BioAssay (NCI).
Several values for one entry are separate records, joined by “and”; a condition that tells them apart may be missing. Equal values may be shown once.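 Cells were grown in 96-well plates and exposed to each compound for 48 hours at five concentrations; endpoints were interpolated linearly between bracketing concentrations, or set to the highest concentration if not reached. GI50 marks 50% less growth. TGI marks complete inhibition of growth.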

Key:
Test in all cases: NCI-60 cell line screen, 48 h
OVCAR-4 ovarian = tested on: OVCAR-4 ovarian
HCT-15 colon = tested on: HCT-15 colon
RXF 393 renal = tested on: RXF 393 renal
CAKI-1 renal = tested on: CAKI-1 renal
OVCAR-8 ovarian = tested on: OVCAR-8 ovarian
ACHN renal = tested on: ACHN renal
MCF7 breast = tested on: MCF7 breast
NCI-H226 lung = tested on: NCI-H226 lung
SF-268 CNS = tested on: SF-268 CNS
HCC-2998 colon = tested on: HCC-2998 colon

SMILES | GI50 (OVCAR-4 ovarian) | TGI (OVCAR-4 ovarian) | GI50 (HCT-15 colon) | TGI (HCT-15 colon) | GI50 (RXF 393 renal) | TGI (RXF 393 renal) | GI50 (CAKI-1 renal) | TGI (CAKI-1 renal) | GI50 (OVCAR-8 ovarian) | TGI (OVCAR-8 ovarian) | GI50 (ACHN renal) | TGI (ACHN renal) | GI50 (MCF7 breast) | TGI (MCF7 breast) | GI50 (NCI-H226 lung) | TGI (NCI-H226 lung) | GI50 (SF-268 CNS) | TGI (SF-268 CNS) | GI50 (HCC-2998 colon) | TGI (HCC-2998 colon)
O=S(=O)(NCCNc1nccc(-c2c(-c3ccc(F)c(O)c3)nc3sccn23)n1)c1ccc(F)cc1 | 3.9 µM | 14.7 µM | 3.25 µM | 52.6 µM | 2.17 µM | 5.46 µM | 4.02 µM | 31.6 µM | 4.25 µM | 48 µM | 2.58 µM | 28.5 µM | 2.17 µM | 12.2 µM | 4.01 µM | 20.4 µM | 4.71 µM | > 100 µM | 4.45 µM | 17.2 µM
Nc1ccccc1C#C/C=C\C#Cc1ccc(OCCCNC(=O)c2cc3ccccc3[nH]2)cc1 | 21.4 µM | > 100 µM | > 100 µM | > 100 µM | 7.15 µM | 22 µM | 18.1 µM | 72 µM | 42.4 µM | > 100 µM | 6.61 µM | 40.9 µM | 1.26 µM | 7.15 µM | 14.4 µM | 87.7 µM | 2.37 µM | 37.4 µM | 31.5 µM | > 100 µM
[C](#Cc1ccccc1)[Hg][C]#Cc1ccccc1 | 18.6 µM | 45.8 µM | 21.1 µM | 43.7 µM | 16.5 µM | 34.9 µM | 20 µM | 41.7 µM | 26.6 µM | 60.9 µM | 21.1 µM | 41.6 µM | 10.4 µM | 56.9 µM | 28.1 µM | 63.2 µM | 18.7 µM | 38 µM | 47.7 µM | 82.6 µM
FC(F)(c1ccc2ncccc2c1)c1nnc2ccc(-c3ccncc3)nn12 | > 100 µM | > 100 µM | 60 µM | > 100 µM | 16.4 µM | 83.8 µM | 25.1 µM | > 100 µM | 84.1 µM | > 100 µM | 50.2 µM | > 100 µM | 95.3 µM | > 100 µM | 45.9 µM | > 100 µM | 66.5 µM | > 100 µM | > 100 µM | > 100 µM
CCOC(=O)Nc1nc2ccc(OC)cc2s1 | > 100 µM | > 100 µM | > 100 µM | > 100 µM | > 100 µM | > 100 µM | > 100 µM | > 100 µM | > 100 µM | > 100 µM | > 100 µM | > 100 µM | > 100 µM | > 100 µM | > 100 µM | > 100 µM | > 100 µM | > 100 µM | > 100 µM | > 100 µM
COc1cc2ncn(-c3cc(OCc4ccccc4C(F)(F)F)c(C(=O)N(C)C)s3)c2cc1OC | 18.1 µM | > 25 µM | > 25 µM | > 25 µM | 8.53 µM | > 18.7 µM | > 25 µM | > 25 µM | 17.7 µM | > 25 µM | > 25 µM | > 25 µM | > 25 µM | > 25 µM | 5.85 µM | > 12.5 µM | > 25 µM | > 25 µM | > 25 µM | > 25 µM
O=[N+]([O-])c1cc(Cl)c2[nH]c3c(Cl)cc([N+](=O)[O-])cc3c2c1 | 0.263 µM | > 100 µM | 0.355 µM | > 100 µM | 0.461 µM | 18.8 µM | 0.209 µM | 0.752 µM | 0.253 µM | 1.23 µM | 0.362 µM |  | 0.284 µM | > 100 µM | 0.393 µM | > 100 µM | 0.403 µM | > 100 µM | 0.331 µM | > 100 µM
COc1cc(C2SCCCCCCCCCCSC(c3ccc(O)c(OC)c3)SCCCCCCCCCCS2)ccc1O (stereo unspecified) |  | > 100 µM |  | > 100 µM |  | > 100 µM |  | > 100 µM |  | > 100 µM |  | > 100 µM |  | > 100 µM |  | > 100 µM |  | > 100 µM |  | 
Cc1[nH]nc(C(F)(F)F)c1N=NN(C)C |  |  |  | 24.4 µM |  | 26.5 µM |  | 3.56 µM |  | 24.6 µM |  | 18.9 µM |  | 14.6 µM |  | 6.36 µM |  | 24.1 µM |  | 31.5 µM
CC1CCC2(NC1)OC1CC3C4CC=C5CC(O)CCC5(C)C4CCC3(C)C1C2C (stereo unspecified) | 22.3 µM and 5.29 µM | 58.8 µM and 53.7 µM |  | > 100 µM |  | 60.2 µM and 39.9 µM | 25.5 µM and 11.2 µM | 71.6 µM and 33 µM | 10.6 µM and 5.16 µM | 35.9 µM and 49 µM | 29.8 µM and 11.1 µM | 91.7 µM and 30 µM |  | > 100 µM |  | > 100 µM and 66.5 µM | 39.8 µM and 16.1 µM | > 100 µM | 31.7 µM and 15.2 µM | > 100 µM and 56 µM
O=C(O)c1ccc(CI)cc1 |  | 27.4 µM |  | 39.8 µM |  | 37.6 µM |  | 27.6 µM |  | 37.3 µM |  | 30.1 µM |  | 31.1 µM |  | 44.1 µM |  | 39.8 µM |  | 35.6 µM
Cc1nc(-c2ccccc2)n2nc(NCCCN3CCOCC3)ncc12 | 15.1 µM | > 25 µM | 12.8 µM | > 25 µM | 6.75 µM | > 25 µM | 6.86 µM | > 25 µM | > 25 µM | > 25 µM | 10.4 µM | > 25 µM | > 25 µM | > 25 µM | > 8.17 µM | > 25 µM | > 25 µM | > 25 µM | > 25 µM | > 25 µM
CC(=O)Oc1ccc(C23c4ccccc4C2(OC(C)=O)c2cc(OC(C)=O)ccc23)cc1 (stereo unspecified) | 30 µM | > 100 µM | 3.81 µM | 17.7 µM | 3.38 µM | 12.3 µM | 4.08 µM | 17.2 µM | 4.28 µM | 49.5 µM | 1.94 µM | 5.4 µM | 16.6 µM | > 100 µM | 20.4 µM | 63.2 µM | 5.54 µM | 22 µM | 2.91 µM | 8.46 µM
COc1ccc(NC(=O)CSC2=C(Nc3cccc(Br)c3)C(=O)N(Cc3ccccc3)C2=O)cc1Cl | > 100 µM | > 100 µM | > 100 µM | > 100 µM | > 100 µM | > 100 µM | > 100 µM | > 100 µM | > 100 µM | > 100 µM | > 100 µM | > 100 µM | 15.9 µM | > 100 µM | > 100 µM | > 100 µM | 21.5 µM | > 100 µM |  | 
